Reference: US20060270603A1, “Amidated parathyroid hormone fragments and uses thereof” (Unigene Laboratories Inc., priority 2004, published 2006)
No end group written: not given here.

Columns and labels:
ovariectomized rats = assay: Efficacy testing of PTH analogs in ovariectomized rats; format: in vivo, Sprague Dawley rats; settings: for osteocalcin (bone formation marker): plasma; for proximal tibia trabecular bone mineral density (BMD) by pQCT: Week 20
Description: To compare their effects in bone, amidated fragments of human parathyroid hormone (PTH) were evaluated in the ovariectomized rat model. Aged female Sprague Dawley rats were subject to bilateral ovariectomy or sham surgery. The animals were held untreated for a period of 8 weeks to allow the development of osteopenia. At that point, the ovariectomized animals were segregated into groups, and each group received daily subcutaneous injection of either vehicle or one of the following PTH fragments: PTH[1-30]NH2, PTH[1-31]NH2, PTH[1-32]NH2, PTH[1-33]NH2, and PTH[1-34]NH2 at a dose of 9.7 nmol/Kg. Treatment continued for a period of twelve weeks. Primary measures of analyses were 1) bone mineral density (BMD) of the spine (L3-L6) as determined by Dual Energy X-Ray Absorptiometry (DXA), 2) trabecular BMD of the proximal tibia as determined by peripheral Quantitative Computed Tomography (pQCT)and 3) evaluation of cortical bone in the distal tibia by PQCT. Secondary measures included urinary deoxypyridinoline (bone resorption marker), plasma osteocalcin (bone formation marker), histomorphometry of trabecular bone from the fourth lumbar vertebra (L4) and cortical bone from the distal tibia, microcomputed tomography (μCT), and bone strength tests of the spine and femur. Bone strength analysis was done on the femoral midshaft and a lumbar vertebral body.
In other experiments involving an ovariectomized rat model for osteoporosis, good efficacy is shown for the pharmaceutical agents of the invention. For example, the groups used in the study were: Sham, OVX (ovariectomized rats), OVX+PTH(1-30)NH2, OVX+PTH(1-31)NH2, OVX +PTH(1-32)NH2, OVX +PTH(1-33)NH2 and OVX +PTH(1-34)NH2.

adenylyl cyclase (AC) = settings: cited from earlier work
ovariectomized rat model = settings: cited from earlier work
[1] = 9.7 nmol/Kg daily subcutaneous injection, twelve weeks

Row | Substance | osteocalcin (bone formation marker) (ovariectomized rats) | cortical bone mass, bone formation on periosteal and endosteal bone surfaces (anabolic effect) (ovariectomized rats; rat, in vivo) | proximal tibia trabecular bone mineral density (BMD) by pQCT (ovariectomized rats) | bone formation rate/bone surface (BFR/BS) on the periosteal surface (ovariectomized rats; compared to OVX) | also measured
1 | PTH[1-30]NH2: amidated fragment of human parathyroid hormone (PTH), 30 amino acids (SVSEIQLMHNLGKHLNSMERVEWLRKKLQD-NH2; UniProt P01270 32-61, looked up, fragment) | significant increase in osteocalcin was observed for all PTH fragment treated groups except for PTH(1-30)NH2 | anabolic effect is weak |  |  | increase in lumbar BMD (L3-L6) by DXA relative to the vehicle-treated ovariectomized animals (ovariectomized rats; [1]): 13%; increase in maximal load, compression testing of a lumbar vertebral body, relative to vehicle-treated ovariectomized animals (ovariectomized rats; [1]): 53%; effect on bone mass and strength (conclusion) (ovariectomized rats; common dose): gain in bone mass that was of a smaller magnitude than the other fragments; bone formation rate/bone surface, trabecular bone (ovariectomized rats; histomorphometry): anabolic effects of all hPTH amide fragments except hPTH(1-30); trabecular area (trabecular bone mass) (ovariectomized rats; in contrast to OVX): increased trabecular bone mass in contrast to OVX except for the hPTH amide fragment (1-30); anabolic effectiveness overall (percent trabecular area, bone volume/total volume, trabecular thickness and number) (ovariectomized rats; micro-CT and histomorphometry): less anabolically effective than the other fragments; cortical analysis of the midshaft of the femur by pQCT (ovariectomized rats; rat, in vivo): all fragments to be effective except hPTH(1-30)NH2; indices of cortical bone strength derived from pQCT (ovariectomized rats; rat, in vivo): no effect
2 | PTH[1-32]NH2: C-terminal amidated human parathyroid hormone analog; hPTH-(1-32) sequence is SEQ ID NO:20 (SVSEIQLMHNLGKHLNSMERVEWLRKKLQDVH-NH2; listed as Homo sapiens) |  | increased cortical bone mass | continue to increase |  | percent porosity of the intracortex (ovariectomized rats; compared to OVX): significantly increased when compared to OVX except hPTH(1-32) amide
3 | PTH[1-33]NH2: C-terminal amidated human parathyroid hormone analog; hPTH-(1-33) sequence is SEQ ID NO:21 (SVSEIQLMHNLGKHLNSMERVEWLRKKLQDVHN-NH2; listed as Homo sapiens) |  | increased cortical bone mass | did not continue to increase | increased BFR/BS | 
4 | PTH[1-34]NH2: amidated fragment of human parathyroid hormone (PTH), 34 amino acids; hPTH-(1-34) sequence is SEQ ID NO:1 | significantly more increase than PTH amide fragments (1-31) and (1-32) | increased cortical bone mass | continue to increase | increased BFR/BS | 
5 | Ser Val Ser Glu Ile Gln Leu Met His Asn Leu Gly Lys His Leu Asn Ser Met Glu Arg Val Glu Trp Leu Arg Lys Lys Leu Gln Asp Val-NH2 [PTH[1-31]NH2] |  | increased cortical bone mass | continue to increase | increased BFR/BS | AC-stimulating activity (adenylyl cyclase (AC)): has only AC-stimulating activity; restoration of bone loss (ovariectomized rat model): fully active; total area (ovariectomized rats; cortical bone): did not increase significantly except hPTH amide (1-31)
